ChEMBL document CHEMBL1157539, “Thousands of chemical starting points for antimalarial lead identification” (Nature, 2010)

System: Plasmodium falciparum
Assay: GSK_TCMDC: Inhibition of Plasmodium falciparum 3D7 in whole erythrocytes, using parasite LDH activity as an index of growth.
Assay type: functional, organism-based
Conditions: Plasmodium falciparum, 3D7

| Structure (SMILES) | XC50 [nM] |
| --- | --- |
| C1=C(c2c[nH]c3ccccc23)CCN(Cc2ccccc2)C1 | 1040 |
| Cc1[nH]c(C)c(-c2ccc(Oc3ccc(O)cc3)cc2)c(=O)c1Cl | 1040 |
| O=C(Nc1ccc(Cl)cc1)c1cccc2nc(C(F)(F)F)[nH]c12 | 764 |
| FC(F)(F)c1ccc2[nH]c(-c3ccc(-c4cccc(CN5CCN(CCN6CCOCC6)CC5)c4)cc3)nc2c1 | 160 |
| CCCNCc1ccc(-c2ccc(CN(CCOC)C(=O)[C@H]3CCCO3)cc2)nc1 | 745 |
| O=C(/C=C/c1ccc(Cl)c(Cl)c1)NCCCCCN1CCC(NC(=O)Nc2cccc(F)c2)CC1 | 769 |
| Cc1cc(C)n(Cc2ccc(C(=O)NCC3CCCCC3)cc2)n1 | 957 |
| COc1c(C2CCN(CCCCNC(=O)c3ccc(-c4ccc(C#N)cc4)nc3)CC2)ccc2c1CCCC2 | 530 |
| CCN(CC)CCCC(C)Nc1c2ccccc2nc2c1ccc1ccccc12 (stereo not given) | 1090 |
| N=C(N)NN=Cc1ccc2c(c1)Cc1ccccc1-2 | 586 |
| FC(F)(F)c1cc(CNCCCNc2nc3ccncc3[nH]2)ccc1Cl | 1010 |
| Cc1ccc(NC(=O)NC2CCN(CCC(NC(=O)Cc3ccccc3)c3ccc(Cl)c(Cl)c3)CC2)cc1 (stereo not given) | 619 |
| O=C(NCCc1cccc(Cl)c1Cl)c1cnc(N2CCN(c3ccncc3)CC2)c(Cl)c1 | 702 |
| CN(C)c1ccc(CN2CCC(CNC(=O)c3cc(-c4cccc(C(F)(F)F)c4)cs3)C2)cc1 (stereo not given) | 882 |
| c1ccc2cc3c(NCCN4CCOCC4)ccnc3cc2c1 | 168 |
| CC(O)C1CCCCN1C(=O)c1cccc(-c2ccc(-c3nc4cc(C(F)(F)F)ccc4[nH]3)cc2)c1 (stereo not given) | 690 |
| CC1(C)N=C(N)N=C(N)N1c1cccc(C(F)(F)F)c1 | 8.62 |
| O=S(=O)(Nc1cccc(CCN2CCCCC2CCN2CCCC2)c1)c1ccc(-c2ccccc2)cc1 (stereo not given) | 1090 |
| N#Cc1ccc(N/C(=N\c2ccc(-c3ccccc3)cc2)NCc2cccnc2)c(O)c1 | 813 |
| O=C(NCCCN1CCN(c2cccc(Cl)c2)CC1)c1ccc(-c2nc3cc(Cl)c(Cl)cc3[nH]2)c(F)c1 | 826 |

| Structure (SMILES) | XC50 [nM] |
| --- | --- |
| CC(C)CCN1CCCN(Cc2ccc(C(=O)NCc3ccc(Cl)cc3)cc2)CC1 | 1010 |
| CCn1c2c(c(=N)c3ccccc31)CCC2 | 505 |
| CC(C)c1ccc(CN2CCC(CNC(=O)c3cc(-c4cccc(F)c4)cs3)C2)cc1 (stereo not given) | 1660 |
| CC(C)CCNCC(O)Cn1c2ccc(Cl)cc2c2cc(Cl)ccc21 (stereo not given) | 447 |
| Cc1ccccc1CNc1noc(-c2c(F)cccc2Cl)n1 | 722 |
| COc1ccc(Nc2nc(N)c3cc(OC)c(OC)cc3n2)cc1OC | 732 |
| COc1ccc2ncc(F)c(CCN3C[C@H](CNCc4cc(C#N)c5c(c4)OCCO5)[C@H](O)C3)c2n1 | 582 |
| Cc1nc(NCCc2c[nH]cn2)cc(NCc2ccccc2)n1 | 833 |
| COc1ccc2nccc(N3CCCN(CCNS(=O)(=O)c4ccc5c(c4)NC(=O)CS5)CC3)c2n1 | 824 |
| CC(Cc1ccc(C(=O)OCCOC(=O)c2ccc(CC(C)NCC(O)c3cccc(C(F)(F)F)c3)cc2)cc1)NCC(O)c1cccc(C(F)(F)F)c1 (stereo not given) | 820 |
| COc1ccc(NC(=O)C2c3ccccc3C(=O)N(C3CCCC3)C2c2cccs2)c(OC)c1 (stereo not given) | 1480 |
| C[C@@H](C(=O)N1CCOCC1)N1CC[C@H](NS(=O)(=O)c2ccc3ccnc(N)c3c2)C1=O | 1500 |
| COc1ccc2nc(-c3ccc(C(=O)NCCCN4CCN(c5cc(Cl)ccc5OC)CC4)cc3)[nH]c2c1 | 772 |
| Oc1ccc2ccccc2c1CNCCC1CCCCC1 | 174 |
| CCNc1cc(C(=O)N[C@@H](Cc2ccccc2)[C@H](O)CN[C@H](C)C(C)(C)C)cc(N2CCCCS2(=O)=O)c1 | 820 |
| O=C(NCCCCN1CCC(c2ccc(C(F)(F)F)cc2C(F)(F)F)CC1)c1ccc(NC(=O)c2ccc(Cl)cc2)cc1 | 613 |
| Cc1c(F)cc(C(=O)NC2CC2)cc1-c1ccc2c(cnn2S(=O)(=O)c2cccs2)c1 | 862 |
| CCCNC(=O)c1cncc(-c2ccc(CNC(CC)c3ccccc3)cc2)c1 (stereo not given) | 876 |
| Cc1c(C)n(C2CCCC2)c2ncnc(OC3CCN(CC(=O)NCC4CC4)CC3)c12 | 891 |
| CCN(CC)CC(O)Cc1c2ccc([N+](=O)[O-])cc2nc2cc(OC)c(OC)cc12 (stereo not given) | 739 |
